Where “and” joins values, the source holds several entries; their conditions need not be identical. Equal values may be shown once.
Legend:
human CB1 receptor [1] = target: T1, human CB1 receptor (Homo sapiens, UniProt P21554); assay: Binding assay for CB1 ([3H]-CP-55,940 displacement, SK-N-MC membranes); settings: for inhibition at 10 µM: test concentration 10 μM (footnote 1), read-out: CB1 receptor binding percent inhibition
T1 construct: expressed in transfected cells; host or cells: SK-N-MC cells, stably transfected with pcDNA3 CB-1 (human)
Protocol: (§1) The human CB1 and CB2 receptors were stably expressed in SK-N-MC cells transfected with pcDNA3 CB-1 (human) or pcDNA3 CB-2 (human). The cells were grown in T-180 cell culture flasks under standard cell culture conditions at 37° C. in a 5% CO2 atmosphere. The cells were harvested by trysinization and homogenized in a homogenization buffer (10 mM Tris, 0.2 mM MgCl2, 5 mM KCl, with protease inhibitors aprotinin, leupeptin, pepstatin A and bacitracin) and centrifuged (2000 g). The supernatant was then centrifuged in 2M sucrose (31,300 g) to produce a semi-purified membrane pellet. The pellet was resuspended in homogenization and stored at −80° C.
(§2) On the day of the assay, the pellet was thawed on ice and diluted in assay buffer (50 mM Tris-HCl, 5 mM MgCl2, 2.5 mM EDTA, 0.5 mg/mL fatty acid free bovine serum albumin, pH 7.5). The diluted membrane pellet was added with buffer, either a test compound or vehicle standard and the radioligand [H]^3+-CP-55,940 (0.2 nM) to the wells of a 96-well polypropylene plate. Non-specific binding was measured in wells containing WIN 55,212 (10 uM). The plate was covered and incubated for 90 minutes at 30° C. The contents were then aspirated onto a Packard Unifilter GF/C filter bottom plate prewet with 0.5% polyethyleneimine. The wells of the polypropylene plate were rinsed and aspirated seven times with a 0.9% saline-0.5% Tween 20 solution. The Unifilter plate was dried, scintillation cocktail was added to each well and the counts representing binding were quantitated in a TopCount scintillation counter.
(§3) For compounds tested, an IC50 binding value was obtained from percent inhibition studies in which various test concentrations were used. The binding value was calculated by linear regression.
(§4) For compounds without an IC50 binding value, the percent inhibition (%) was obtained at a test concentration of ^(1)10 μM, ^(2)1 μM, ^(3)0.2 μM, ^(4)0.003 μM, ^(5) represents an average value.

CB2 receptor [2] = target: T2, CB2 receptor (Homo sapiens, UniProt P34972); assay: Binding assay for CB2 ([3H]-CP-55,940 displacement, SK-N-MC membranes); settings: Cannabinoid CB2 Receptor Binding IC50, radioligand CP-55,940 0.2 nM; SK-N-MC membranes
T2 construct: expressed in transfected cells; host or cells: SK-N-MC cells, stably transfected with pcDNA3 CB-2 (human)
Protocol: as §1, §2, §3, §4

human CB1 receptor [3] = target: T1, human CB1 receptor; assay: Functional cell-based CRE β-gal assay, CB1 (adenylate cyclase activity); settings: single test concentration 10 μM (footnote 1)
Description: (§5) The CB1 and CB2 receptors are G-protein coupled receptors (GPCR), which influence cell function via the Gi-protein. These receptors modulate the activity of intracellular adenylate cyclase, which in turn produces the intracellular signal messenger cyclic-AMP (cAMP).
(§6) At baseline, or during non-ligand bound conditions, these receptors are constitutively active and tonically suppress adenylate cyclase activity. The binding of an agonist causes further receptor activation and produces additional suppression of adenylate cyclase activity. The binding of an inverse agonist inhibits the constitutive activity of the receptors and results in an increase in adenylate cyclase activity.
(§7) By monitoring intracellular adenylate cyclase activity, the ability of compounds to act as agonists or inverse agonists can be determined.
(§8) Test compounds were evaluated in SK-N-MC cells which, using standard transfection procedures, were stably transfected with human cDNA for pcDNA3-CRE β-gal and pcDNA3 CB1 receptor (human) or pcDNA3 CB2 receptor (human). By expressing CRE β-gal, the cells produced β-galactosidase in response to CRE promoter activation by cAMP. Cells expressing CRE β-gal and either the human CB1 or CB2 receptor will produce less β-galactosidase when treated with a CB1/CB2 agonist and will produce more β-galactosidase when treated with a CB1/CB2 inverse agonist.
(§9) The cells were grown in 96-well plates under standard cell culture conditions at 37° C. in a 5% CO2 atmosphere. After 3 days, the media was removed and a test compound in media (wherein the media was supplemented with 2 mM L-glutamine, […] sodium pyruvate, 0.1% low fatty acid FBS (fetal bovine serum) and antibiotics) was added to the cell. The plates were incubated for 30 minutes at 37° C. and the plate cells were then treated with forskolin over a 4-6 hour period, then washed and lysed. The β-galactosidase activity was quantitated using commercially available kit reagents (Promega Corp. Madison, Wis.) and a Vmax Plate Reader (Molecular Devices, Inc).
(§10) The change in β-galactosidase activity was determined by setting a vehicle treated cell's activity value at 100% and expressing the β-galactosidase activity measured in a corresponding compound treated cell as a percent of the vehicle treated cell activity.
The EC50 value for functional activity for compounds tested was calculated by linear regression and was obtained from studies in which varying compound concentrations were used. Data provided for certain compounds is represented by percent change (%) in functional activity at a single test concentration: ^(1)10 μM and ^(2)1 μM.

CB2 receptor [4] = target: T2, CB2 receptor; assay: Functional cell-based CRE β-gal assay, CB2 (adenylate cyclase activity)
Description: as §5, §6, §7, §8, §9
For cells expressing CRE β-gal and the CB2 receptor, CB2 agonists reduced β-galactosidase activity in a dose-dependent manner and CB2 inverse agonists increase β-galactosidase activity in a dose-dependent manner.
as §10
The EC50 value for functional activity for compounds tested was calculated by linear regression and was obtained from studies in which varying compound concentrations were used.
The value of 29% for Compound 5 represents change in functional activity and was obtained from a study in which one compound concentration was used.

CB2 receptor [5] = target: T2, CB2 receptor; assay: Modified functional cell-based assay (Beta-Glo luminescence), CB2 agonist
Protocol: Additional functional activity studies were performed with minor modifications. Beta galactosidase activity was quantified using the luminescent Beta-Glo Assay System (Promega Corp. Madison, Wis.) and an Orion Microplate Luminometer (Berthold Detection Systems, Oak Ridge, Tenn.). The EC50 values were calculated using GraphPad Prism and a four parameter logistic equation.

T1 sequence (P21554 whole entry): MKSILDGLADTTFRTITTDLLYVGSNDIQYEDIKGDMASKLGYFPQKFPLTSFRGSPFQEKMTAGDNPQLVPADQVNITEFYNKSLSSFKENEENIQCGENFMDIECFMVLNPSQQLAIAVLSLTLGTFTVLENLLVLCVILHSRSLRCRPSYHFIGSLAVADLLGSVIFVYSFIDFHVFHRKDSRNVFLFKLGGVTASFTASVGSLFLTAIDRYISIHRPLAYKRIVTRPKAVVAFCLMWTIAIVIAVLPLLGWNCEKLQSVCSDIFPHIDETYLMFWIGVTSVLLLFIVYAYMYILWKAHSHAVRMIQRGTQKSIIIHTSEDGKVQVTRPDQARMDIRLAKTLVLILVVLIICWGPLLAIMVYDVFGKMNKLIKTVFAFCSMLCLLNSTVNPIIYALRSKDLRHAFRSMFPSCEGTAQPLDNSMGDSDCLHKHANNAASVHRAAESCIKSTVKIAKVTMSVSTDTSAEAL
T2 sequence (P34972 whole entry): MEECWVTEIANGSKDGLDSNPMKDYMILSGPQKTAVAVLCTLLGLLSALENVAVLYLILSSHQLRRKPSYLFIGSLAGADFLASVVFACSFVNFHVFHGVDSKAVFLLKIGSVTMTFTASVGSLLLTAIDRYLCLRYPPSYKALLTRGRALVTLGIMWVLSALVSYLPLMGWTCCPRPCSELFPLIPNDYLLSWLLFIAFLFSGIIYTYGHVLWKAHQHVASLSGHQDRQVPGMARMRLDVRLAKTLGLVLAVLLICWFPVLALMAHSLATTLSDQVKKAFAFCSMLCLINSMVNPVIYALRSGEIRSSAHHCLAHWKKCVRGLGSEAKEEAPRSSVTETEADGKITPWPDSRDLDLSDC

Compound | IC50 (human CB1 receptor [1]; Cannabinoid CB1 Receptor Binding IC50, radioligand CP-55,940 0.2 nM, SK-N-MC membranes) | IC50 (CB2 receptor [2]) | CB1 receptor percent change in functional activity (human CB1 receptor [3]) | EC50 (CB2 receptor [4]) | inhibition at 10 µM (human CB1 receptor [1]) | CB2 receptor change in functional activity (CB2 receptor [4]; one compound concentration) | EC50 (CB2 receptor [5])
CC12CCC(C1)C(C)(C)C2NC(=O)c1nn(C2CCCCC2)c2c1CCCCCC2 (stereo not shown) [Cpd 1, 1-cyclohexyl-4,5,6,7,8,9-hexahydro-1H-cyclooctapyrazole-3-carboxylic acid (1,3,3-trimethyl-bicyclo[2.2.1]hept-2-yl)-amide] | 40 nM | 0.1 nM and 0.09 nM | ^(1)−78% | 1.6 nM | – | – | –
O=C(NCC12CC3CC(CC(C3)C1)C2)c1nn(C2CCCC2)c2c1CCCCCC2 [Cpd 3, 1-cyclopentyl-4,5,6,7,8,9-hexahydro-1H-cyclooctapyrazole-3-carboxylic acid (adamantan-1-ylmethyl)-amide] | – | 20 nM | ^(1)−6% | 200 nM | 45% | – | –
CC(NC(=O)c1nn(C2CCCC2)c2c1CCCCCC2)C12CC3CC(CC(C3)C1)C2 (stereo not shown) [Cpd 5, 1-cyclopentyl-4,5,6,7,8,9-hexahydro-1H-cyclooctapyrazole-3-carboxylic acid (1-adamantan-1-yl-ethyl)-amide] | – | 100 nM | ^(1)10% | – | 47% | 29% | –
O=C(N[C@@H](CO)c1ccccc1)c1n[nH]c2c1CCCCC/C2=C\c1cccc(Cl)c1 [Cpd 31, (9E)-(3-chloro-benzylidene)-4,5,6,7,8,9-hexahydro-1H-cyclooctapyrazole-3-carboxylic acid [(1R)-2-hydroxy-1-phenyl-ethyl]-amide] | – | – | – | – | – | – | 18 nM
